From patent US7704995B2 (Exelixis, Inc., priority 2003, dated 2010)
Like-named read-outs stand apart in the source and are kept apart here.

Target: T1, Chk1 (Homo sapiens, UniProt O14757)
T1 construct: purchased Upstate Biotechnology
T1 sequence (O14757 1-476): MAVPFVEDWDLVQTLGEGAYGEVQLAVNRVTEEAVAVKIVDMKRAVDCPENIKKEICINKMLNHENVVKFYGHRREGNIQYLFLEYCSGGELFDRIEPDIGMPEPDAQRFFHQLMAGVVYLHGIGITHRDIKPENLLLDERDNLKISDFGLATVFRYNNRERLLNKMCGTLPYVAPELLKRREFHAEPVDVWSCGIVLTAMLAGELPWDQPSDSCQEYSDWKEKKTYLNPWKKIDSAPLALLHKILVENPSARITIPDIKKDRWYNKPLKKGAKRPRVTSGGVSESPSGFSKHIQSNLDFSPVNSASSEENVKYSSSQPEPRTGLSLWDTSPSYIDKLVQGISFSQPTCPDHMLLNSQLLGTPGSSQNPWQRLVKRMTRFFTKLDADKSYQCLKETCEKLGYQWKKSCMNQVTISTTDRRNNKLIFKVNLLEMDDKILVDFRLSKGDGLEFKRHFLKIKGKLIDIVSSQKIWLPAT
Test: Chk1 kinase assay: incorporation of γ-33P ATP into immobilized myelin basic protein
Format: biochemical
Details: read-out: Chk1 IC50
Method in brief: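 Incorporation of γ-33P into myelin basic protein coated on plates was scintillation-counted after 1 h at room temperature, duplicate points. Unlabeled ATP was 10 μM with 10 nM Chk1, 30 μM with 20 nM Chk2; buffer Hepes pH 7.6, MgCl2, DTT, 1% DMSO. Output IC50, optionally converted to Ki.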

[1] = Table 11, Chk1 only, class symbols A-D

IC50 [nM] | IC50 (Table 11, Chk1 only) [nM] | SMILES | other results
– | – | Nc1ncc(-c2cccc(O)c2)nc1C(=O)N[C@H]1CCNC1 [Example 811, 3-amino-6-(3-hydroxyphenyl)-N-[(3S)-pyrrolidin-3-yl]pyrazine-2-carboxamide] | IC50 [1]: 50 to 1000 nM
50 to 1000 | – | CNC(=O)c1nc(-c2cccc(C(=O)NCc3cccnc3)c2)cnc1N [Example 122, 3-amino-N-methyl-6-(3-{[(pyridin-3-ylmethyl)amino]carbonyl}phenyl)pyrazine-2-carboxamide] | –
– | 1000 to 10000 | Nc1ncc(-c2cccc(CN[C@H]3CCc4ccccc43)c2)nc1C(=O)NCc1ccncc1 [Example 534, 3-amino-6-(3-{[(1S)-2,3-dihydro-1H-inden-1-ylamino]methyl}phenyl)-N-(pyridin-4-ylmethyl)pyrazine-2-carboxamide] | –
– | 50 to 1000 | Nc1ncc(-c2cccc(CN[C@H]3CCc4ccccc43)c2)nc1-c1nc(C2CCNCC2)n[nH]1 [Example 639, 5-(3-{[(1S)-2,3-dihydro-1H-inden-1-ylamino]methyl}phenyl)-3-(3-piperidin-4-yl-1H-1,2,4-triazol-5-yl)pyrazin-2-amine] | –
– | 50 to 1000 | CN1CCCC(c2n[nH]c(-c3nc(-c4cccc(CN[C@H]5CCc6ccccc65)c4)cnc3N)n2)C1 (stereo partly drawn) [Example 737, 5-(3-{[(1S)-2,3-dihydro-1H-inden-1-ylamino]methyl}phenyl)-3-[3-(1-methylpiperidin-3-yl)-1H-1,2,4-triazol-5-yl]pyrazin-2-amine] | –
– | – | CN(C)c1ccc(C(=O)NCc2cccc(-c3cnc(N)c(C(=O)N[C@H]4CCCNC4)n3)c2)cc1 [Example 903, 3-amino-6-{3-[({[4-(dimethylamino)phenyl]carbonyl}amino)methyl]phenyl}-N-[(3S)-piperidin-3-yl]pyrazine-2-carboxamide] | IC50 [1]: < 50 nM
– | 1000 to 10000 | CC(C)(C)OC(=O)N1CC[C@H](NC(=O)c2nc(-c3cccc(C(=O)NCc4ccccn4)c3)cnc2N)C1 [Example 757, 1,1-dimethylethyl (3S)-3-({[3-amino-6-(3-{[(pyridin-2-ylmethyl)amino]carbonyl}phenyl)pyrazin-2-yl]carbonyl}amino)pyrrolidine-1-carboxylate] | –
– | 50 to 1000 | Nc1ncc(-c2cccc(CN[C@H]3CCc4ccccc43)c2)nc1-c1nnc[nH]1 [Example 536, 5-(3-{[(1S)-2,3-dihydro-1H-inden-1-ylamino]methyl}phenyl)-3-(4H-1,2,4-triazol-3-yl)pyrazin-2-amine] | –
– | ≥ 10000 | Nc1ncc(-c2cccc(C(=O)NCc3ccccc3)c2)nc1C(=O)c1ccc(-c2ccccc2)cc1 [Example 579, 3-[5-amino-6-(biphenyl-4-ylcarbonyl)pyrazin-2-yl]-N-(phenylmethyl)benzamide] | –
1000 to 10000 | – | Nc1ncc(-c2cccc(C(=O)NCc3ccccc3)c2)nc1C(=O)NC1CC1 [Example 270, 3-amino-N-cyclopropyl-6-(3-{[(phenylmethyl)amino]carbonyl}phenyl)pyrazine-2-carboxamide] | –
– | 50 to 1000 | CNC(=O)c1nc(-c2cccc(CNC3CCc4cc(F)cc(F)c43)c2)cnc1N (centres unmarked) [Example 479, 3-amino-6-(3-{[(5,7-difluoro-2,3-dihydro-1H-inden-1-yl)amino]methyl}phenyl)-N-methylpyrazine-2-carboxamide] | –
– | – | CC(C)(C)OC(=O)N1CC[C@H](NC(=O)c2nc(-c3cccc(C(=O)NCc4ccc(Cl)cc4Cl)c3)cnc2N)C1 [Example 822, 1,1-dimethylethyl (3S)-3-[({3-amino-6-[3-({[(2,4-dichlorophenyl)methyl]amino}carbonyl)phenyl]pyrazin-2-yl}carbonyl)amino]pyrrolidine-1-carboxylate] | IC50 [1]: 1000 to 10000 nM
≥ 10000 | – | NC(=O)c1nc(-c2cccc(F)c2)cnc1N [Example 19, 3-amino-6-(3-fluorophenyl)pyrazine-2-carboxamide] | –
– | < 50 | CNCCNC(=O)c1nc(-c2cccc(CN[C@H]3CCc4ccccc43)c2)cnc1N [Example 559, 3-amino-6-(3-{[(1S)-2,3-dihydro-1H-inden-1-ylamino]methyl}phenyl)-N-[2-(methylamino)ethyl]pyrazine-2-carboxamide] | –
– | ≥ 10000 | Cn1nc(-c2nc(-c3cccc(C(=O)NCc4ccccc4)c3)cnc2N)nc1C1CCCCN1 (centres unmarked) [Example 701, 3-[5-amino-6-(1-methyl-5-piperidin-2-yl-1H-1,2,4-triazol-3-yl)pyrazin-2-yl]-N-(phenylmethyl)benzamide] | –
50 to 1000 | – | CNC(=O)c1nc(-c2cccc(C(=O)NCc3c(F)cccc3F)c2)cnc1N [Example 338, 3-amino-6-[3-({[(2,6-difluorophenyl)methyl]amino}carbonyl)phenyl]-N-methylpyrazine-2-carboxamide] | –
– | ≥ 10000 | C/C(=N\Nc1ccccn1)c1nc(-c2cccc(C(=O)NCc3ccccc3)c2)cnc1N [Example 632, 3-{5-amino-6-[(1E)-N-pyridin-2-ylethanehydrazonoyl]pyrazin-2-yl}-N-(phenylmethyl)benzamide] | –
50 to 1000 | – | CNC(=O)c1nc(-c2cccc(C(=O)NCc3ccc(S(N)(=O)=O)cc3)c2)cnc1N [Example 237, 3-amino-6-{3-[({[4-(aminosulfonyl)phenyl]methyl}amino)carbonyl]phenyl}-N-methylpyrazine-2-carboxamide] | –
– | ≥ 10000 | N#Cc1ccc(N/N=C/c2nc(-c3cccc(C(=O)NCc4ccccc4)c3)cnc2N)cc1 [Example 679, 3-(5-amino-6-{(E)-[(4-cyanophenyl)hydrazono]methyl}pyrazin-2-yl)-N-(phenylmethyl)benzamide] | –
50 to 1000 | – | CCCN(CCOc1cccc(-c2cnc(N)c(C(=O)NC)n2)c1)CC1CC1 [Example 186, 3-amino-6-[3-({2-[(cyclopropylmethyl)(propyl)amino]ethyl}oxy)phenyl]-N-methylpyrazine-2-carboxamide] | –
– | 50 to 1000 | CCNC(=O)c1nc(-c2cccc(CNC3CCc4cc(F)cc(F)c43)c2)cnc1N (centres unmarked) [Example 489, 3-amino-6-(3-{[(5,7-difluoro-2,3-dihydro-1H-inden-1-yl)amino]methyl}phenyl)-N-ethylpyrazine-2-carboxamide] | –
– | 50 to 1000 | CNC(=O)c1nc(-c2cccc(CNC3CC(=O)c4ccccc43)c2)cnc1N (centres unmarked) [Example 471, 3-amino-N-methyl-6-(3-{[(3-oxo-2,3-dihydro-1H-inden-1-yl)amino]methyl}phenyl)pyrazine-2-carboxamide] | –
– | – | Cc1nnsc1C(=O)NCc1cccc(-c2cnc(N)c(C(=O)N[C@H]3CCCNC3)n2)c1 [Example 991, 3-amino-6-[3-({[(4-methyl-1,2,3-thiadiazol-5-yl)carbonyl]amino}methyl)phenyl]-N-[(3S)-piperidin-3-yl]pyrazine-2-carboxamide] | IC50 [1]: < 50 nM
– | 50 to 1000 | CCN(Cc1ccccc1)Cc1cccc(-c2cnc(N)c(C(=O)NC)n2)c1 [Example 439, 3-amino-6-(3-{[ethyl(phenylmethyl)amino]methyl}phenyl)-N-methylpyrazine-2-carboxamide] | –
50 to 1000 | – | CNC(=O)c1nc(-c2cccc(C(=O)N[C@@H]3CCN(Cc4ccccc4)C3)c2)cnc1N [Example 197, 3-amino-N-methyl-6-[3-({[(3R)-1-(phenylmethyl)pyrrolidin-3-yl]amino}carbonyl)phenyl]pyrazine-2-carboxamide] | –
50 to 1000 | – | CNC(=O)c1nc(-c2cccc(C(=O)NCc3ccccc3-c3ccncc3)c2)cnc1N [Example 390, 3-amino-N-methyl-6-[3-({[(2-pyridin-4-ylphenyl)methyl]amino}carbonyl)phenyl]pyrazine-2-carboxamide] | –
